Reference: ChEMBL document CHEMBL6121036, “Evaluation of Cereblon-Directing Warheads for the Development of Orally Bioavailable PROTACs” (J Med Chem, 2025)
Converted amounts (≈) assume the structure as drawn. The source made the active and inactive calls. No cut-off for these calls is given here.

Assays:
[1] = target: T1, Protein cereblon/Bromodomain-containing protein 4 (Homo sapiens, UniProt O60885+Q96SW2); test: PROTAC activity at CRBN/Hibit-tagged BRD4 (unknown origin) expressed in HEK293 cells co-expressing LgBiT assessed as degradation of BRD4 incubated for 24 hrs by […] glo-max assay; format: cell-based
[2] = target: T1, Protein cereblon/Bromodomain-containing protein 4; test: PROTAC activity at CRBN/Hibit-tagged BRD4 (unknown origin) expressed in HEK293 cells co-expressing LgBiT assessed as degradation of BRD4 incubated for 24 hrs by […] glo-max assay relative to control; format: cell-based
[3] = target: T1, Protein cereblon/Bromodomain-containing protein 4; test: PROTAC activity at CRBN/Hibit-tagged BRD4 (unknown origin) expressed in HEK293 cells co-expressing LgBiT assessed as degradation rate incubated for 24 hrs by […] glo-max assay; format: cell-based
[4] = tested on: MV4-11; test: Cytotoxicity against human MV4-11 cells assessed as reduction in cell viability incubated for 72 hrs by cell-titer glo assay; format: functional, cell-based; conditions: MV4-11, 72 h
[5] = tested on: HD-MB03; test: Cytotoxicity against human HD-MB03 cells assessed as reduction in cell viability incubated for 72 hrs by cell-titer glo assay; format: functional, cell-based; conditions: HD-MB03, 72 h
[6] = Kinetic aqueous solubility of the compound at pH 7.4; format: physicochemical; conditions: read-out: Kinetic_solubility
[7] = Metabolic stability in mouse liver microsomes assessed as half life; format: ADME, Microsome; conditions: liver microsomes
[8] = target: Protein cereblon/Bromodomain-containing protein 4/DNA damage-binding protein 1 (Homo sapiens) (UniProt O60885+Q96SW2+Q16531); test: Binding affinity to his-tagged CRBN/DDB1/GST-tagged BRD4 (49 to 170 residues)(unknown origin) assessed as ternary complex formation (AUC) incubated for 1 hr by luminescence based Alphascreen assay; format: protein assay
[9] = tested on: HEK293; test: Cytotoxicity against HEK293 cells expressing LgBiT fused HiBiT-BRD2 measured after 24 hrs by cell titer-glo assay; format: toxicity, cell-based; conditions: human, hek293, 24 h
[10] = target: T2, Protein cereblon/Bromodomain-containing protein 2 (Homo sapiens) (UniProt P25440+Q96SW2); test: PROTAC activity at CRBN/Hibit-tagged CRISPR BRD2 (unknown origin) expressed in HEK293 cells coexpressing LgBiT assessed as degradation of BRD2 by […] glo-max assay; format: cell-based
[11] = target: Protein cereblon/Bromodomain-containing protein 3 (Homo sapiens) (UniProt Q15059+Q96SW2); test: PROTAC activity at CRBN/Hibit-tagged CRISPR BRD3 (unknown origin) expressed in HEK293 cells co-expressing LgBiT assessed as degradation of BRD3 by […] glo-max assay; format: cell-based
[12] = target: T1, Protein cereblon/Bromodomain-containing protein 4; test: PROTAC activity at CRBN/Hibit-tagged CRISPR BRD4 (unknown origin) expressed in HEK293 cells co-expressing LgBiT assessed as degradation of BRD4 by […] glo-max assay; format: cell-based
[13] = Effect on BRD3 level in human MV4-11 cells assessed as fold change at 100 nM measured after 4 hrs; format: functional
[14] = Effect on BRD4 level in human MV4-11 cells assessed as fold change at 100 nM measured after 4 hrs; format: functional
[15] = Effect on BRD2 level in human MV4-11 cells assessed as fold change at 100 nM measured after 4 hrs; format: functional
[16] = Effect on MYC level in human MV4-11 cells assessed as fold change at 100 nM measured after 4 hrs; format: functional
[17] = Effect on FYTTD1 level in human MV4-11 cells assessed as fold change at 100 nM measured after 4 hrs; format: functional
[18] = Effect on CCNF level in human MV4-11 cells assessed as fold change at 100 nM measured after 4 hrs; format: functional
[19] = Effect on CDC42EP3 level in human MV4-11 cells assessed as fold change at 100 nM measured after 4 hrs; format: functional
[20] = Effect on MCL1 level in human MV4-11 cells assessed as fold change at 100 nM measured after 4 hrs; format: functional
[21] = Effect on PLAU level in human MV4-11 cells assessed as fold change at 100 nM measured after 4 hrs; format: functional
[22] = Effect on ZFP36L2 level in human MV4-11 cells assessed as fold change at 100 nM measured after 4 hrs; format: functional
[23] = Effect on FGL2 level in human MV4-11 cells assessed as fold change at 100 nM measured after 4 hrs; format: functional
[24] = Effect on NSA2 level in human MV4-11 cells assessed as fold change at 100 nM measured after 4 hrs; format: functional
[25] = Effect on CCND3 level in human MV4-11 cells assessed as fold change at 100 nM measured after 4 hrs; format: functional
[26] = Effect on AURKA level in human MV4-11 cells assessed as fold change at 100 nM measured after 4 hrs; format: functional
[27] = Effect on NOP53 level in human MV4-11 cells assessed as fold change at 100 nM measured after 4 hrs; format: functional
[28] = Effect on PLK1 level in human MV4-11 cells assessed as fold change at 100 nM measured after 4 hrs; format: functional
[29] = Effect on RNF166 level in human MV4-11 cells assessed as fold change at 100 nM measured after 4 hrs; format: functional
[30] = Effect on ZBTB21 level in human MV4-11 cells assessed as fold change at 100 nM measured after 4 hrs; format: functional
[31] = Effect on TP53 level in human MV4-11 cells assessed as fold change at 100 nM measured after 4 hrs; format: functional
[32] = Stability in mouse plasma assessed as half life by UPLC-MS/MS analysis; format: ADME, cell-free
[33] = Permeability in MDCK-II cells incubated for 1 hr by UPLC/MS/UV analysis; format: ADME, cell-based, Canis lupus familiaris; conditions: dog, read-out: permeability
[34] = target: T2, Protein cereblon/Bromodomain-containing protein 2 (Homo sapiens); test: PROTAC activity at CRBN/Hibit-tagged CRISPR BRD2 (unknown origin) expressed in HEK293 cells coexpressing LgBiT assessed as degradation of BRD2 by […] glo-max assay relative to control; format: cell-based

## Cc1sc2c(c1C)C(c1ccc(Cl)cc1)=N[C@@H](CC(=O)NCCCOc1ccc(C3CCC(=O)NC3=O)cc1)c1nnc(C)n1-2 (stereo partly drawn)
[1]
  DC50: 0.75 nM
[2]
  Emax: 97.3%
[3]
  Activity: 0.264 fRLU/hr
[4]
  IC50: 0.23 nM
[5]
  IC50: 3.27 nM
[6]
  solubility kinetic: 52.8 µM (≈ 34.1 µg/mL)
[7]
  half-life: 0.16 h
[8]
  Activity: Active
[9]
  Activity: Non-toxic

## Cc1sc2c(c1C)C(c1ccc(Cl)cc1)=N[C@@H](CC(=O)N1CC(COc3ccc(C4CCC(=O)NC4=O)cc3)C1)c1nnc(C)n1-2 (stereo partly drawn)
[1]
  DC50: 13.9 nM
[2]
  Emax: 40.4%
[3]
  Activity: 0.07 fRLU/hr
[4]
  IC50: 3.1 nM
[5]
  IC50: 38.2 nM
[6]
  solubility kinetic: 21.3 µM (≈ 14 µg/mL)
[7]
  half-life: 0.28 h
[8]
  Activity: Active
[9]
  Activity: Non-toxic

## Cc1sc2c(c1C)C(c1ccc(Cl)cc1)=N[C@@H](CC(=O)N1CCC(CN3CCN(c4ccc(NC5CCC(=O)NC5=O)c(F)c4)CC3)CC1)c1nnc(C)n1-2 (stereo partly drawn)
[1]
  DC50: 2.31 nM
[2]
  Emax: 79.1%
[3]
  Activity: 0.093 fRLU/hr
[4]
  IC50: 0.96 nM
[5]
  IC50: 14.3 nM
[6]
  solubility kinetic: 71.1 µM (≈ 55.9 µg/mL)
[7]
  half-life: 1.86 h
[8]
  Activity: Active
[10]
  Activity: Active; Less Potent Than Protac 8
[11]
  Activity: Active; Less Potent Than Protac 8
[12]
  Activity: Active; Less Potent Than Protac 8
[13]
  fold change (FC): -3.87
[14]
  fold change (FC): -3.41
[15]
  fold change (FC): -3.07
[16]
  fold change (FC): -2.23
[17]
  fold change (FC): -1.46
[18]
  fold change (FC): -1.62
[19]
  fold change (FC): -1.17
[20]
  fold change (FC): -1.06
[21]
  fold change (FC): -1.06
[22]
  fold change (FC): -0.97
[23]
  fold change (FC): -0.95
[24]
  fold change (FC): -1.03
[25]
  fold change (FC): -0.82
[26]
  fold change (FC): -0.77
[27]
  fold change (FC): -0.82
[28]
  fold change (FC): -0.65
[29]
  fold change (FC): -0.33
[30]
  fold change (FC): -0.09
[31]
  fold change (FC): 1.71
[32]
  half-life: 19.7 h

## Cc1sc2c(c1C)C(c1ccc(Cl)cc1)=N[C@@H](CC(=O)N1CCC(CN3CCN(c4cc5c(cc4F)C(=O)N(C4CCC(=O)NC4=O)C5=O)CC3)CC1)c1nnc(C)n1-2 (stereo partly drawn)
[1]
  DC50: 6.28 nM
[2]
  Emax: 88.6%
[3]
  Activity: 0.143 fRLU/hr
[4]
  IC50: 3.23 nM
[5]
  IC50: 84 nM
[6]
  solubility kinetic: 73.4 µM (≈ 61.7 µg/mL)
[7]
  half-life: 0.28 h
[8]
  Activity: Active
[10]
  Activity: Active; Less Potent Than Protac 8
[11]
  Activity: Active; Less Potent Than Protac 8
[12]
  Activity: Active; Less Potent Than Protac 8
[13]
  fold change (FC): -3.93
[14]
  fold change (FC): -3.89
[15]
  fold change (FC): -3.06
[16]
  fold change (FC): -2.29
[17]
  fold change (FC): -1.52
[18]
  fold change (FC): -1.86
[19]
  fold change (FC): -1.41
[20]
  fold change (FC): -1.22
[21]
  fold change (FC): -1.14
[22]
  fold change (FC): -1.09
[23]
  fold change (FC): -1.1
[24]
  fold change (FC): -1.04
[25]
  fold change (FC): -0.96
[26]
  fold change (FC): -0.84
[27]
  fold change (FC): -0.81
[28]
  fold change (FC): -0.75
[29]
  fold change (FC): -1.01
[30]
  fold change (FC): -0.02
[31]
  fold change (FC): 1.82
[33]
  Papp at 1 h: 10.5 ×10⁻⁶ cm/s
[32]
  half-life: 13.7 h

## Cc1sc2c(c1C)C(c1ccc(Cl)cc1)=N[C@@H](CC(=O)N1CCN(c3ccc(C4CCC(=O)NC4=O)cc3)CC1)c1nnc(C)n1-2 (stereo partly drawn)
[1]
  DC50: > 10000 nM
[2]
  Emax: 10.6%
[3]
  Activity: 0.005 fRLU/hr
[4]
  IC50: 18.6 nM
[5]
  IC50: 250 nM
[6]
  solubility kinetic: 17 µM (≈ 11.2 µg/mL)
[7]
  half-life: 0.2 h
[8]
  Activity: Active; Lower Ternary Complex Auc Formation Observed
[9]
  Activity: Non-toxic

## Cc1sc2c(c1C)C(c1ccc(Cl)cc1)=N[C@@H](CC(=O)N1CCN(CC3CCN(c4ccc(C5CCC(=O)NC5=O)cc4)CC3)CC1)c1nnc(C)n1-2 (stereo partly drawn)
[1]
  DC50: 0.43 nM
[2]
  Emax: 96.9%
[3]
  Activity: 0.245 fRLU/hr
[4]
  IC50: 0.22 nM
[5]
  IC50: 1.96 nM
[6]
  solubility kinetic: 64.5 µM (≈ 48.6 µg/mL)
[7]
  half-life: 2.16 h
[8]
  Activity: Active
[9]
  Activity: Non-toxic

## Cc1sc2c(c1C)C(c1ccc(Cl)cc1)=N[C@@H](CC(=O)OC(C)(C)C)c1nnc(C)n1-2
[7]
  half-life: 0.23 h

## Cc1sc2c(c1C)C(c1ccc(Cl)cc1)=N[C@@H](CC(=O)N1CCC(CN3CCN(c4ccc(NC5CCC(=O)NC5=O)cc4)CC3)CC1)c1nnc(C)n1-2 (stereo partly drawn)
[1]
  DC50: 6.51 nM
[2]
  Emax: 34.9%
[3]
  Activity: 0.036 fRLU/hr
[4]
  IC50: 2.92 nM
[5]
  IC50: 31.4 nM
[6]
  solubility kinetic: 5.7 µM (≈ 4.38 µg/mL)
[7]
  half-life: 2.45 h
[8]
  Activity: Active
[34]
  Activity: < 50%
[13]
  fold change (FC): -2.78
[14]
  fold change (FC): -2.24
[15]
  fold change (FC): -1.8
[16]
  fold change (FC): -1.77
[17]
  fold change (FC): -0.84
[18]
  fold change (FC): -0.38
[19]
  fold change (FC): -1
[20]
  fold change (FC): -0.49
[21]
  fold change (FC): -0.73
[22]
  fold change (FC): -0.75
[23]
  fold change (FC): -1.19
[24]
  fold change (FC): -0.65
[25]
  fold change (FC): -0.56
[26]
  fold change (FC): -0.55
[27]
  fold change (FC): -0.49
[28]
  fold change (FC): -0.56
[29]
  fold change (FC): -0.29
[30]
  fold change (FC): -0.14
[31]
  fold change (FC): 1.12
[32]
  half-life: 12.9 h

## Cc1sc2c(c1C)C(c1ccc(Cl)cc1)=N[C@@H](CC(=O)N1CCN(c3cccc(C4CCC(=O)NC4=O)c3)CC1)c1nnc(C)n1-2 (stereo partly drawn)
[1]
  DC50: > 10000 nM
[2]
  Emax: 12.3%
[3]
  Activity: 0.005 fRLU/hr
[4]
  IC50: 6.36 nM
[5]
  IC50: 90.7 nM
[6]
  solubility kinetic: 21.5 µM (≈ 14.1 µg/mL)
[7]
  half-life: 0.29 h
[8]
  Activity: Active; Lower Ternary Complex Auc Formation Observed
[9]
  Activity: Non-toxic
